Publication PMC10578927, “An unconventional gatekeeper mutation sensitizes inositol hexakisphosphate kinases to an allosteric inhibitor” (eLife, 2023)
pIC50: −log10 of the molar value.

How the values were obtained:
IP6K1^L210V = target: T1, IP6K1^L210V (Homo sapiens, UniProt Q92551, L210V); test: NMR activity assay, [13C6]-InsP6 to 5PP-InsP5, with ATP-regenerating system; type: biochemical
T1 construct: made in house; host or cells: E. coli Arctic Express
Description: (§1) The gatekeeper mutants L210G and L210A of IP6K1 were generated by site-directed mutagenesis and the enzymes were recombinantly expressed, analogous to the WT kinase, as MBP-fusion proteins. To assess their catalytic activity, we used an NMR assay that harnesses fully ^13C-labeled InsP6 as a substrate and enables direct product readout of 5PP-InsP5 (Figure 2b and Figure 2—figure supplement 1; [Puschmann et al., 2019]; [Harmel et al., 2019]). […] Likewise, IP6K2 suffered a drastic decline in substrate turnover upon gatekeeper mutation to glycine (Figure 2—figure supplement 2).
(§2) The NMR assay for IP6K activity was performed similarly as described before ([Harmel et al., 2019]) with slight alterations. Enzyme assays were performed in D2O in a total volume of 150 µl containing 20 mM 4-(2-hydroxyethyl)-1-piperazineethanesulfonic acid (HEPES) pH* 6.8, 50 mM NaCl, 6 mM MgCl2, 1 mM ATP, 0.2 mg/ml BSA, 1 mM DTT, 5 mM creatine phosphate and 1 U/ml creatine kinase (ATP-regenerating system) and 50 nM kinase if not otherwise stated. HEPES, NaCl, and BSA were prepared as buffer A and DTT and creatine phosphate as buffer B in D2O and were adjusted to pH* 6.8, respectively. If applicable, inhibitor was added as a DMSO-d6 stock in a twofold dilution series at a final DMSO concentration of 1% if not otherwise mentioned. Otherwise, DMSO-d6 was added to the same percentage. The samples were equilibrated at 37°C for 3 min and the reaction initiated by adding 100 µM [^13C6]-InsP6.

IP6K1^wt = target: T2, IP6K1^wt (Homo sapiens, UniProt Q92551); test: as above; type: biochemical; details: 1 mM ATP, ATP-regenerating system
T2 construct: made in house; host or cells: E. coli Arctic Express
Description: as §1, §2

T1 sequence (Q92551 whole entry L210V): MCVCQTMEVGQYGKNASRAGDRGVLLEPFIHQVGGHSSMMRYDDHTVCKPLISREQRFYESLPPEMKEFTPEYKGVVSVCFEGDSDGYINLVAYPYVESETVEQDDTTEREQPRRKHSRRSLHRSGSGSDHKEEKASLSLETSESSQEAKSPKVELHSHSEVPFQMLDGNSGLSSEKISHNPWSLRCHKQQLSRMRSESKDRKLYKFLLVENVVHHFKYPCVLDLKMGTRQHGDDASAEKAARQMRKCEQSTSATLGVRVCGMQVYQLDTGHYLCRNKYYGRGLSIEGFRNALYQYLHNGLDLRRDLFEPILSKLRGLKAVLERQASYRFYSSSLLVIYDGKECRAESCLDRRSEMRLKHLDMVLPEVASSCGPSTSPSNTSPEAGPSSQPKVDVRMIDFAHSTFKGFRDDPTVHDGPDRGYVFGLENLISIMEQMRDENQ
T2 sequence (Q92551 whole entry): as the sequence (Q92551 whole entry L210V) above, with V210L counted along it

O=C(O)c1ccc2c(c1)C(=O)N(c1ccc(-c3nc4ccc(N5C(=O)c6ccc(C(=O)O)cc6C5=O)cc4[nH]3)cc1)C2=O [FMP-201300]
pIC50 (IP6K1^L210V; 100 μM InsP6): 7.12
pIC50 (IP6K1^L210V; 500 μM InsP6): 7.06
difference in IC50 values measured at 100 and 500 µM InsP6 (IP6K1^L210V; IP6K1^L210V): negligible
pIC50 (IP6K1^L210V; NMR assay, 1 mM ATP, ATP-regenerating system): 6.94
pIC50 (IP6K1^wt): 6.09
